Test results from patent publication US20230391739A1, “ARYL DERIVATIVES FOR TREATING TRPM3 MEDIATED DISORDERS” (Katholieke Universiteit Leuven, priority 2020, published 2023).
pIC50: −log10 of the molar value.

Each compound was assayed against T1, mouse TRPM3α2 (mTRPM3) ion channel (Mus musculus, UniProt J9SQF3) (assay: TRPM3 ion channel driven Ca2+ uptake, Fluo-4 AM assay, PS-stimulated (mTRPM3)). Conditions: TRPM3 overexpressing flip-in HEK293 cells stimulated with Pregnenolone sulfate (PS) 50 μM, activity ranges A, B, C.
T1 construct: expressed in transfected cells; host or cells: flip-in HEK293
T1 sequence (J9SQF3 1-1709 isoform J9SQF3-12): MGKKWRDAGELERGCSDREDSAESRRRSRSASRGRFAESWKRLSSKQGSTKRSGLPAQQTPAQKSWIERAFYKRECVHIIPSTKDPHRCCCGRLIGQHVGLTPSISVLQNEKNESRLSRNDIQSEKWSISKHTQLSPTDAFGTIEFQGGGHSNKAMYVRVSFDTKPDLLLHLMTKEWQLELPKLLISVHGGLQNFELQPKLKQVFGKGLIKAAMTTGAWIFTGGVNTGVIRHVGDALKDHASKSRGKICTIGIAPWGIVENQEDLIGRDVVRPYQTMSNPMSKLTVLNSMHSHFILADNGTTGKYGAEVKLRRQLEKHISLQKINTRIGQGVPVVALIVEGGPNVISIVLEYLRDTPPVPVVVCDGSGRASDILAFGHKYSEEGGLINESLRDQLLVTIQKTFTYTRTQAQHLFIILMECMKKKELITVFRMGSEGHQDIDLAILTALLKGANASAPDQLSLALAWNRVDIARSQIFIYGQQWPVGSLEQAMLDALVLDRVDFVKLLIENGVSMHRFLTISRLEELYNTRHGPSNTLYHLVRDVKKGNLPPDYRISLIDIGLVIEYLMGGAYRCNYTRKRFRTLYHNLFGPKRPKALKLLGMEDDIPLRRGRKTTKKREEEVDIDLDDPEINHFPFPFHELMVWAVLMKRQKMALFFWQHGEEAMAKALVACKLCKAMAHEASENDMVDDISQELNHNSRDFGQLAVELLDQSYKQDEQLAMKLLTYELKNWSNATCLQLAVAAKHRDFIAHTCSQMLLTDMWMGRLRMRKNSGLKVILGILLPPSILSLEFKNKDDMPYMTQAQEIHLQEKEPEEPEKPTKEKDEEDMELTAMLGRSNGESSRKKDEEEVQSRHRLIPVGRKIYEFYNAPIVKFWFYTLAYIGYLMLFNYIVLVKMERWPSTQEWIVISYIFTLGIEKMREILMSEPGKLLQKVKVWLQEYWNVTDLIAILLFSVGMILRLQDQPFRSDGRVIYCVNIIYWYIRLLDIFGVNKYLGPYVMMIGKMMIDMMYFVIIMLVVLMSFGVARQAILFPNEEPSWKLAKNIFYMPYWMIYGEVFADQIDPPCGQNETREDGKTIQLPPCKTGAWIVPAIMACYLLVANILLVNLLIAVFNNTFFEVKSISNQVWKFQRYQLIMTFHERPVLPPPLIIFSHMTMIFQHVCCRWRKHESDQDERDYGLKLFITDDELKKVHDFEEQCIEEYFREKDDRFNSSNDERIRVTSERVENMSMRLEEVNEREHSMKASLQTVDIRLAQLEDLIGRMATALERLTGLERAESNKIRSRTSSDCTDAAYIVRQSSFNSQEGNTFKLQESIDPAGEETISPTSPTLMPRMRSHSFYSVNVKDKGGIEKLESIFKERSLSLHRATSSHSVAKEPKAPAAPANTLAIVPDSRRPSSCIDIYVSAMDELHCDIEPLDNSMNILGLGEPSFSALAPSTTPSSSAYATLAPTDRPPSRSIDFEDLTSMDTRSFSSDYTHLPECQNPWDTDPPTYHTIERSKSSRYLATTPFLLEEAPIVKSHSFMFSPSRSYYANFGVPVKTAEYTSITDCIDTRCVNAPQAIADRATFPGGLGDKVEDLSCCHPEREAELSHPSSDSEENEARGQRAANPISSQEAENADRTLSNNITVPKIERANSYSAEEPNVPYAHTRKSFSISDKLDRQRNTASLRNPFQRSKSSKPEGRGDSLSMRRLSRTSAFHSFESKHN
Format: cell-based
Summary of the method: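 Ca²⁺ influx through mouse TRPM3α2, opened by 50 μM pregnenolone sulfate, was tracked with Fluo-4 AM in stably transfected HEK293 cells read directly after seeding onto pre-dispensed compound.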

`Cc1oc2ccc(COc3ccccc3F)cc2c1C(=O)NC(CO)C(N)=O` (single isomer, unassigned) [Cpd 321-En 2, N-(1-amino-3-hydroxy-1-oxopropan-2-yl)-5-((2-fluorophenoxy)methyl)-2-methylbenzofuran-3-carboxamide] was tested. Which pIC50 did it give?
Its pIC50 is over 6.00.

How did the pIC50 turn out when `Cc1ccc(COc2ccc3oc(C)c(C(=O)NS(=O)(=O)C4CC4)c3c2)cc1` [Cpd 169, N-(cyclopropylsulfonyl)-2-methyl-5-((4-methylbenzyl)oxy)benzofuran-3-carboxamide] was run?
Its pIC50 is 4.70 to 6.00.

How did the pIC50 turn out when `Cc1oc2ccc(OCc3ccccc3)cc2c1C(=O)N[C@@H]1CN[C@H](CO)C1` [Cpd 126, 5-(benzyloxy)-N-((3S,5S)-5-(hydroxymethyl)pyrrolidin-3-yl)-2-methylbenzofuran-3-carboxamide] was run?
The pIC50 was over 6.00.

How did the pIC50 turn out when `Cc1cccc(COc2ccc3oc(C)c(C(=O)NS(=O)(=O)C4CC4)c3c2)c1` [Cpd 170, N-(cyclopropylsulfonyl)-2-methyl-5-((3-methylbenzyl)oxy)benzofuran-3-carboxamide] was run?
The pIC50 was 4.70 to 6.00.

With `Cc1oc2ccc(OCc3ccccc3)cc2c1C(=O)NC1CCNC(=O)C1` (stereo not drawn) [Cpd 108, 5-(benzyloxy)-2-methyl-N-(2-oxopiperidin-4-yl)benzofuran-3-carboxamide] as the compound, how does the pIC50 read?
Its pIC50 is 4.70 to 6.00.

With `Cc1oc2ccc(OCc3c(F)cccc3F)cc2c1C(=O)N[C@H]1CCN(C(=O)OC(C)(C)C)C1` [Cpd 257, tert-butyl (S)-3-(5-((2,6-difluorobenzyl)oxy)-2-methylbenzofuran-3-carboxamido)pyrrolidine-1-carboxylate] as the compound, how does the pIC50 read?
Its pIC50 is 4.70 to 6.00.

How did the pIC50 turn out when `Cc1oc2ccc(OCc3c(F)cccc3F)cc2c1C(=O)NC1(CO)CCOCC1` [Cpd 218, 5-((2,6-difluorobenzyl)oxy)-N-(4-(hydroxymethyl)tetrahydro-2H-pyran-4-yl)-2-methylbenzo-furan-3-carboxamide] was run?
Its pIC50 is over 6.00.

With `Cc1oc2ccc(OCc3ccccc3F)cc2c1C(=O)NC(C)CO` (single isomer, unassigned) [Cpd 328-En 2] as the compound, how does the pIC50 read?
The pIC50 was over 6.00.

How did the pIC50 turn out when `Cc1oc2ccc(OCc3ccccc3)cc2c1C(=O)NC1CCN(C)CC1` [Cpd 117, 5-(benzyloxy)-2-methyl-N-(1-methylpiperidin-4-yl)benzofuran-3-carboxamide] was run?
The pIC50 was over 6.00.

`Cc1oc2ccc(OCc3ccccc3F)cc2c1C(=O)N[C@@H]1COC[C@@H]1O` (single isomer, unassigned) [Cpd 329-En 1] was tested. Which pIC50 did it give?
The pIC50 was over 6.00.

`Cc1oc2ccc(OCc3ccccc3)cc2c1C(=O)NC1CCN(C(=O)OC(C)(C)C)C(C)C1` (stereo not drawn) [Cpd 252, tert-butyl cis-4-(5-(benzyloxy)-2-methylbenzofuran-3-carboxamido)-2-methylpiperidine-1-carboxylate] was tested. Which pIC50 did it give?
Its pIC50 is 4.70 to 6.00.

`Cc1oc2ccc(OCc3ccccc3)cc2c1C(=O)NC1CC1` [Cpd 039, 5-(benzyloxy)-N-cyclopropyl-2-methylbenzofuran-3-carboxamide] was tested. Which pIC50 did it give?
Its pIC50 is 4.70 to 6.00.

`Cc1oc2ccc(OCc3ccccc3F)cc2c1C(=O)NC(CO)C(N)=O` (single isomer, unassigned) [Cpd 314-En 1] was tested. Which pIC50 did it give?
The pIC50 was over 6.00.

`Cc1oc2ccc(OC(C)c3ccccc3)cc2c1C(=O)NC1(CO)CCOCC1` (single isomer, unassigned) [Cpd 308-En 2, N-(4-(hydroxymethyl)tetrahydro-2H-pyran-4-yl)-2-methyl-5-(1-phenylethoxy)benzofuran-3-carboxamide] was tested. Which pIC50 did it give?
Its pIC50 is over 6.00.

With `Cc1oc2ccc(OCc3cccc(F)c3)cc2c1C(=O)N[C@H]1CCNC1` [Cpd 096, (S)-5-((3-fluorobenzyl)oxy)-2-methyl-N-(pyrrolidin-3-yl)benzofuran-3-carboxamide] as the compound, how does the pIC50 read?
Its pIC50 is over 6.00.

With `COCC(Oc1ccc2oc(C)c(C(=O)N[C@@H](CO)C(N)=O)c2c1)c1ccccc1` (single isomer, unassigned) [Cpd 346-En 1] as the compound, how does the pIC50 read?
Its pIC50 is over 6.00.

`Cc1oc2ccc(OCc3ccccc3F)cc2c1C(=O)NS(=O)(=O)C1CC1` [Cpd 175, N-(cyclopropylsulfonyl)-5-((2-fluorobenzyl)oxy)-2-methylbenzofuran-3-carboxamide] was tested. Which pIC50 did it give?
Its pIC50 is over 6.00.

`Cc1oc2ccc(OCc3cccc(F)c3)cc2c1C(=O)NS(=O)(=O)C1CC1` [Cpd 176, N-(cyclopropylsulfonyl)-5-((3-fluorobenzyl)oxy)-2-methylbenzofuran-3-carboxamide] was tested. Which pIC50 did it give?
The pIC50 was over 6.00.

How did the pIC50 turn out when `Cc1oc2ccc(OCc3ccccc3)cc2c1C(=O)NC1CCS(=O)(=O)CC1` [Cpd 198, 5-(benzyloxy)-N-(1,1-dioxidotetrahydro-2H-thiopyran-4-yl)-2-methylbenzofuran-3-carboxamide] was run?
The pIC50 was over 6.00.

With `Cc1oc2ccc(OCc3ccccc3)cc2c1C(=O)NC1CN(C(=O)OC(C)(C)C)C1` [Cpd 228, tert-butyl 3-(5-(benzyloxy)-2-methylbenzofuran-3-carboxamido)azetidine-1-carboxylate] as the compound, how does the pIC50 read?
Its pIC50 is 4.70 to 6.00.

How did the pIC50 turn out when `Cc1oc2ccc(OCc3ccccc3)cc2c1C(=O)NC1CNCC1(F)F` (stereo not drawn) [Cpd 137, 5-(benzyloxy)-N-(4,4-difluoropyrrolidin-3-yl)-2-methylbenzofuran-3-carboxamide] was run?
The pIC50 was over 6.00.

`Cc1oc2ccc(OCc3ccccc3)cc2c1C(=O)N[C@@H]1C[C@H]2CNC[C@H]2C1` [Cpd 140, 5-(benzyloxy)-2-methyl-N-(trans-octahydrocyclopenta[c]pyrrol-5-yl)benzofuran-3-carboxamide] was tested. Which pIC50 did it give?
Its pIC50 is over 6.00.

How did the pIC50 turn out when `Cc1oc2ccc(OCc3ccccc3)cc2c1C(=O)NCc1ccncc1` [Cpd 101, 5-(benzyloxy)-2-methyl-N-(pyridin-4-ylmethyl)benzofuran-3-carboxamide] was run?
The pIC50 was 4.70 to 6.00.

With `Cc1oc2ccc(OCc3cccc(F)c3)cc2c1C(N)=O` [Cpd 037, 5-((3-fluorobenzyl)oxy)-2-methylbenzofuran-3-carboxamide] as the compound, how does the pIC50 read?
The pIC50 was under 4.70.

With `Cc1oc2ccc(OCc3ccccc3)cc2c1C(=O)NC1CCN(C(C)C)CC1` [Cpd 185, 5-(benzyloxy)-N-(1-isopropylpiperidin-4-yl)-2-methylbenzofuran-3-carboxamide] as the compound, how does the pIC50 read?
The pIC50 was over 6.00.

How did the pIC50 turn out when `Cc1oc2ccc(OCc3ccccc3)cc2c1C(=O)NC1CCNC(C)C1` (racemic) [Cpd 115, rac-5-(benzyloxy)-2-methyl-N-(cis-2-methylpiperidin-4-yl)benzofuran-3-carboxamide] was run?
The pIC50 was over 6.00.

With `Cc1oc2ccc(OCc3ccccc3)cc2c1C(=O)NC1CCC(=O)NC1` (stereo not drawn) [Cpd 111, 5-(benzyloxy)-2-methyl-N-(6-oxopiperidin-3-yl)benzofuran-3-carboxamide] as the compound, how does the pIC50 read?
The pIC50 was 4.70 to 6.00.

How did the pIC50 turn out when `Cc1oc2ccc(OCc3ccccc3)cc2c1C(=O)NCC(O)CO` (stereo not drawn) [Cpd 057, 5-(benzyloxy)-N-(2,3-dihydroxypropyl)-2-methylbenzofuran-3-carboxamide] was run?
The pIC50 was over 6.00.

How did the pIC50 turn out when `Cc1oc2ccc(OCc3c(F)cccc3Cl)cc2c1C(=O)N(C)C` [Cpd 065, 5-((2-chloro-6-fluorobenzyl)oxy)-N,N,2-trimethylbenzofuran-3-carboxamide] was run?
Its pIC50 is 4.70 to 6.00.

With `Cc1oc2ccc(OCc3ccccc3)cc2c1C(=O)N[C@H]1CC[C@@H](N)CC1` [Cpd 116, N-(cis-4-aminocyclohexyl)-5-(benzyloxy)-2-methylbenzofuran-3-carboxamide] as the compound, how does the pIC50 read?
Its pIC50 is over 6.00.

How did the pIC50 turn out when `Cc1oc2ccc(OCc3ccccc3)cc2c1C(=O)N[C@@H]1C[C@H]2COC[C@@H](C1)N2C(=O)OC(C)(C)C` [Cpd 265, tert-butyl (1R,5S,7r)-7-(5-(benzyloxy)-2-methylbenzofuran-3-carboxamido)-3-oxa-9-azabicyclo-[3.3.1]nonane-9-carboxylate] was run?
The pIC50 was under 4.70.

`O=C(O)c1coc2ccc(OCc3ccccc3)cc12` [Cpd 001, 5-(benzyloxy)benzofuran-3-carboxylic acid] was tested. Which pIC50 did it give?
Its pIC50 is 4.70 to 6.00.

How did the pIC50 turn out when `Cc1oc2ccc(OCc3ccccc3)cc2c1C(=O)NCCc1ccncc1` [Cpd 139, 5-(benzyloxy)-2-methyl-N-(2-(pyridin-4-yl)ethyl)benzofuran-3-carboxamide] was run?
The pIC50 was 4.70 to 6.00.

With `Cc1oc2ccc(OCc3ccc(C(F)(F)F)cc3)cc2c1C(=O)NC1CCN(C)CC1` [Cpd 234, 2-methyl-N-(1-methylpiperidin-4-yl)-5-((4-(trifluoromethyl)benzyl)oxy)benzofuran-3-carboxamide] as the compound, how does the pIC50 read?
The pIC50 was 4.70 to 6.00.

How did the pIC50 turn out when `CCCNC(=O)c1c(C)oc2ccc(OCc3ccccc3)cc12` [Cpd 040, 5-(benzyloxy)-2-methyl-N-propylbenzofuran-3-carboxamide] was run?
Its pIC50 is 4.70 to 6.00.

How did the pIC50 turn out when `Cc1oc2ccc(OCc3ccccc3F)cc2c1C(=O)NC1(CO)CCOC1` (single isomer, unassigned) [Cpd 327-En 2, 5-((2-fluorobenzyl)oxy)-N-(3-(hydroxymethyl)tetrahydrofuran-3-yl)-2-methylbenzofuran-3-carboxamide] was run?
The pIC50 was over 6.00.

`Cc1oc2ccc(OCc3ccccc3F)cc2c1C(=O)NC(CO)C(N)=O` (single isomer, unassigned) [Cpd 314-En 2] was tested. Which pIC50 did it give?
Its pIC50 is over 6.00.

How did the pIC50 turn out when `Cc1oc2ccc(OCc3ccccc3)cc2c1C(=O)N[C@@H]1CCN(C)C1` [Cpd 080, (R)-5-(benzyloxy)-2-methyl-N-(1-methylpyrrolidin-3-yl)benzofuran-3-carboxamide] was run?
The pIC50 was over 6.00.

How did the pIC50 turn out when `Cc1oc2c(Cl)cc(OCc3ccccc3)cc2c1C(=O)NC1CNCC1(F)F` (single isomer, unassigned) [Cpd 304-En 2, 5-(benzyloxy)-7-chloro-N-(4,4-difluoropyrrolidin-3-yl)-2-methylbenzofuran-3-carboxamide] was run?
The pIC50 was under 4.70.

With `Cc1oc2ccc(OC(CO)c3ccccc3F)cc2c1C(=O)N[C@@H](CO)C(N)=O` (single isomer, unassigned) [Cpd 335-Dia 2] as the compound, how does the pIC50 read?
The pIC50 was over 6.00.

How did the pIC50 turn out when `Cc1oc2ccc(OC(CO)c3ccccc3)cc2c1C(=O)NC1(CO)CCOCC1` (single isomer, unassigned) [Cpd 317-En 2, 5-(2-hydroxy-1-phenylethoxy)-N-(4-(hydroxymethyl)tetrahydro-2H-pyran-4-yl)-2-methylbenzofuran-3-carboxamide] was run?
Its pIC50 is 4.70 to 6.00.

With `Cc1oc2ccc(OCc3ccccc3)cc2c1C(=O)NC[C@@H]1CCCO1` [Cpd 090, (S)-5-(benzyloxy)-2-methyl-N-((tetrahydrofuran-2-yl)methyl)benzofuran-3-carboxamide] as the compound, how does the pIC50 read?
The pIC50 was over 6.00.
